From the NIST ThermoML archive (doi:10.1021/je050031f)

Tests used:
[1] = xn = mol fraction of the nth substance listed; settings: 100.8 kPa, Liquid
[2] = refractive index (Na D-line) (dimensionless); xn = mol fraction of the nth substance listed; settings: 100.8 kPa, Liquid, Standard Abbe refractometry

CC(C)OC(C)C [diisopropyl ether] + CCO
Settings	mass density, 288.15 K [kg/m3]	mass density, 298.15 K [kg/m3]	mass density, 308.15 K [kg/m3]	refractive index, 288.15 K	refractive index, 298.15 K	refractive index, 308.15 K	viscosity, 288.15 K [mPa·s]	viscosity, 298.15 K [mPa·s]	viscosity, 308.15 K [mPa·s]
[1], x1 = 0.05	788.3	779.8	771	–	–	–	1.176	0.976	0.815
[1], x1 = 0.1	783.4	774.8	765.8	–	–	–	1.047	0.876	0.737
[1], x1 = 0.15	778.8	770	760.9	–	–	–	0.946	0.793	0.671
[1], x1 = 0.2	774.7	765.7	756.4	–	–	–	0.851	0.718	0.613
[1], x1 = 0.25	770.7	761.4	752	–	–	–	0.772	0.655	0.562
[1], x1 = 0.3	766.9	757.5	747.9	–	–	–	0.705	0.605	0.52
[1], x1 = 0.35	763.3	753.9	744.2	–	–	–	0.649	0.559	0.484
[1], x1 = 0.4	760	750.4	740.7	–	–	–	0.6	0.519	0.452
[1], x1 = 0.45	756.9	747.1	737.3	–	–	–	0.559	0.487	0.427
[1], x1 = 0.5	753.8	744.1	734.1	–	–	–	0.523	0.457	0.403
[1], x1 = 0.55	751	741.2	731.1	–	–	–	0.494	0.432	0.382
[1], x1 = 0.6	748.3	738.4	728.3	–	–	–	0.467	0.413	0.364
[1], x1 = 0.65	745.7	735.8	725.6	–	–	–	0.445	0.393	0.349
[1], x1 = 0.7	743.2	733.2	723	–	–	–	0.424	0.378	0.335
[1], x1 = 0.75	740.7	730.7	720.5	–	–	–	0.407	0.363	0.325
[1], x1 = 0.8	738.3	728.3	718	–	–	–	0.393	0.349	0.315
[1], x1 = 0.85	735.8	725.8	715.5	–	–	–	0.379	0.338	0.306
[1], x1 = 0.9	733.5	723.4	713.1	–	–	–	0.367	0.33	0.298
[1], x1 = 0.95	731.1	720.9	710.6	–	–	–	0.367	0.319	0.29
[1], x1 = 1	729	718.6	707.9	–	–	–	0.347	0.313	0.283
[2], x1 = 0.05	–	–	–	1.3657	1.36097	1.35649	–	–	–
[2], x1 = 0.1	–	–	–	1.36697	1.36212	1.35757	–	–	–
[2], x1 = 0.15	–	–	–	1.368	1.36316	1.35852	–	–	–
[2], x1 = 0.2	–	–	–	1.36883	1.36395	1.35926	–	–	–
[2], x1 = 0.25	–	–	–	1.36952	1.36457	1.3598	–	–	–
[2], x1 = 0.3	–	–	–	1.37013	1.36509	1.36021	–	–	–
[2], x1 = 0.35	–	–	–	1.37062	1.3655	1.36057	–	–	–
[2], x1 = 0.4	–	–	–	1.37102	1.36587	1.36083	–	–	–
[2], x1 = 0.45	–	–	–	1.37134	1.36612	1.36102	–	–	–
[2], x1 = 0.5	–	–	–	1.37158	1.36632	1.36113	–	–	–
[2], x1 = 0.55	–	–	–	1.37175	1.36644	1.36119	–	–	–
[2], x1 = 0.6	–	–	–	1.3719	1.36651	1.36118	–	–	–
[2], x1 = 0.65	–	–	–	1.37197	1.36652	1.36116	–	–	–
[2], x1 = 0.7	–	–	–	1.37196	1.36651	1.36112	–	–	–
[2], x1 = 0.75	–	–	–	1.37192	1.36645	1.36103	–	–	–
[2], x1 = 0.8	–	–	–	1.37188	1.36635	1.36089	–	–	–
[2], x1 = 0.85	–	–	–	1.37178	1.36621	1.36071	–	–	–
[2], x1 = 0.9	–	–	–	1.37162	1.36597	1.36042	–	–	–
[2], x1 = 0.95	–	–	–	1.37141	1.36566	1.36	–	–	–
[2], x1 = 1	–	–	–	1.37126	1.36537	1.35954	–	–	–
